Experimental data taken from patent US20240100025A1, “Materials and Methods for Treating Viral and Other Medical Conditions” (Biotronik AG, priority 2020, published 2024).

Tests used:
[1] = Novartis everolimus study, rats; cited from earlier work
Hantavirus = conditions: 0.05 μM, lowest concentration studied; cited from earlier work
[2] = oral; cited from earlier work

SMILES: CO[C@H]1C[C@@H]2CC[C@@H](C)[C@@](O)(O2)C(=O)C(=O)N2CCCC[C@H]2C(=O)O[C@H]([C@H](C)C[C@@H]2CC[C@@H](OCCO)[C@H](OC)C2)CC(=O)[C@H](C)/C=C(\C)[C@@H](O)[C@@H](OC)C(=O)[C@H](C)C[C@H](C)/C=C/C=C/C=C/1C [everolimus]
- tissue distribution, highest drug concentrations [1]: highest drug concentrations were in the gastrointestinal tract and liver

SMILES: CO[C@H]1C[C@@H]2CC[C@@H](C)[C@@](O)(O2)C(=O)C(=O)N2CCCC[C@H]2C(=O)O[C@H]([C@H](C)C[C@@H]2CC[C@@H](OC(=O)C(C)(CO)CO)[C@H](OC)C2)CC(=O)[C@H](C)/C=C(\C)[C@@H](O)[C@@H](OC)C(=O)[C@H](C)C[C@H](C)/C=C/C=C/C=C/1C [temsirolimus]
- reduction in virus titers (Hantavirus): 50%

SMILES: CO[C@H]1C[C@@H]2CC[C@@H](C)[C@@](O)(O2)C(=O)C(=O)N2CCCC[C@H]2C(=O)O[C@H]([C@H](C)C[C@@H]2CC[C@@H](O)[C@H](OC)C2)CC(=O)[C@H](C)/C=C(\C)[C@@H](O)[C@@H](OC)C(=O)[C@H](C)C[C@H](C)/C=C/C=C/C=C/1C [sirolimus, Rapamycin]
- fraction unbound (Protein binding): 0.049
- bioavailability [2]: ~14%
